Laboratory results reported in publication PMC8483441 (Journal of Medicinal Chemistry, 2021).
Converted amounts (≈) assume the structure as drawn. “Also recorded” adds a separate entry of the source. Where two headings read alike, the source gives them in different places. Square brackets hold non-standard residues; d marks the D form. Peptide text beside a SMILES is read from it. hArg = N=C(N)NCCCC[C@H](N)C(=O)O; Dab = NCC[C@H](N)C(=O)O

Columns and labels:
E. coli [1] = assay: Antimicrobial resistance, recurrent incubation; assay type: cell-based; conditions: for MIC: Escherichia coli
Protocol: To test whether recurrent incubation of bacteria with peptides could induce resistance, E. coli (10^7 cfu/mL) were incubated with peptides (1 μM) or ciprofloxacin (1 μg/mL) for 1 h. After incubation, cells were centrifuged, washed, and grown overnight in Mueller-Hinton medium. The cycle of incubation and growth was repeated in a cyclic manner for 7 days, and each day, cultures were tested for MIC to detect resistance.

50% (v/v) Human Serum = conditions: up to 480 min
S. enterica = assay type: cell-based, Salmonella enterica; conditions: 24 h
Protocol: (§1) Human serum was purchased from Sigma (St Louis, USA).
(§2) Incubations were kept at 37 °C for 24 h. Results are the average of three independent studies.

[2] = Cytotoxicity in mammalian cells (MTT assay); assay type: cell-based; conditions: MRC-5 cytotoxicity (IC50)
Protocol: MRC-5 cells were grown in Eagle’s minimum essential medium (MEMα), supplemented with 10% fetal bovine serum (FBS). 96-well plates were seeded with 3 × 10^4 cells/well and cultured overnight in order to get cells adhered into the plate and then incubated with two-fold peptide serial dilutions. After 4 h of incubation, the medium containing the peptides was replaced by MEMα supplemented with FBS and 3-(4,5-dimethylthiazol-2-yl)-2,5-diphenyltetrazolium bromide (MTT) at 0.4 mg/mL and incubated for 150 min. Detection of formazan crystals in the living cells was done by cell disruption by addition of 200 μL of dimethyl sulfoxide (DMSO) followed by absorbance measuring at 600 nm in a Tecan Infinite F Nano+ microplate reader (Tecan, Germany). Results are the average of three independent studies.

Salmonella enterica = assay type: cell-based; conditions: 24 h
Protocol: as §2

Escherichia coli = assay type: cell-based; conditions: 24 h
Protocol: as §2

Acinetobacter baumannii = assay type: cell-based; conditions: 24 h
Protocol: as §2

Pseudomonas sp. [3] = assay: Minimum bactericidal concentration (MBC); assay type: cell-based; conditions: 50 μL from MIC wells seeded into Petri plates, 24 h; lowest concentration without detectable growth
Protocol: as §2

E. coli [4] = assay type: cell-based, Escherichia coli; conditions: 24 h
Protocol: as §1, §2

horse red blood cells = assay: Hemolytic activity; assay type: cell-based
Protocol: The peptide toxicity was determined detecting the disruption of horse red blood cells, following a previous assay report.[35] 10-fold diluted cells in PBS were centrifuged three times at 800g to eliminate the hemoglobin from disrupted cells. After the last resuspension, erythrocytes were incubated with the peptides for 4 h at 37 °C. The detection was done measuring the supernatant absorbance in a VICTOR3 multilabel plate reader (Perkin Elmer, Waltham, Massachusetts) at 540 nm in a microplate reader. Percentage of hemolysis was calculated through a pattern done with dilutions of total cell lysis done with a 1% Triton X-100 buffer. Results are the average of three independent studies.

Pseudomonas sp. [5] = assay: MIC of peptides incubated with human serum; assay type: cell-based; conditions: peptide incubated with human serum 1:1; 10^6 cfu/mL Pseudomonas sp., 4 h
Protocol: as §2

S. flexneri = conditions: 24 h
Excerpt: Purified horse red blood cells were acquired from Thermo Fisher Scientific (Hampshire, England). Human serum was purchased from Sigma (St Louis, USA). E. coli was obtained from the Coli Genetic Stock Center (BW25113). S. flexneri (ATCC 29903), A. baumannii (ATCC 15308), Pseudomonas sp. (ATCC 15915), and S. enterica (ATCC 14028) were obtained from the CECT (Valencia, Spain). Clinical strains were supplied by the Vall d’Hebron Hospital (Barcelona, Spain). MRC5 fibroblasts were obtained from the Cytometry and Cell Culture Facility (SCAC, UAB) and originally purchased from ATCC.
The antibiotic activity was defined by the minimum peptide concentration where the microorganism is unable to grow. The assay was done in polypropylene 96-well plates (Greiner, Frickenhausen, Germany) to avoid peptide binding to plate wells. Peptides were dissolved in water containing 0.4% w/v bovine serum albumin (BSA) and 0.02% v/v glacial acetic acid to prevent self-aggregation, following the reference protocol by Wiegand et al.,[42] based on the classical microtiter broth dilution recommended by the […]. Initial bacteria inoculum was adjusted to 5 × 10^5 CFU/mL in Mueller-Hinton (MH) medium. Incubations were kept at 37 °C for 24 h. Results are the average of three independent studies. MIC assays in the presence of serum were performed by incubating the peptide with human serum at a 1:1 ratio. Then, 10^6 cfu/mL of Pseudomonas sp. were incubated with serial dilutions of the peptides for 4 h. To determine the MBC, 50 μL from all wells were seeded into Petri plates and incubated for 24 h. The MBC concentration was attributed to the lowest concentration without detectable bacterial growth for each peptide.

Shigella flexneri = conditions: 50 μL from MIC wells seeded into Petri plates, 24 h; lowest concentration without detectable growth
Protocol: The antibiotic activity was defined by the minimum peptide concentration where the microorganism is unable to grow. The assay was done in polypropylene 96-well plates (Greiner, Frickenhausen, Germany) to avoid peptide binding to plate wells. Peptides were dissolved in water containing 0.4% w/v bovine serum albumin (BSA) and 0.02% v/v glacial acetic acid to prevent self-aggregation, following the reference protocol by Wiegand et al.,[42] based on the classical microtiter broth dilution recommended by the National Committee of Laboratory Safety and Standards (NCLSS). Initial bacteria inoculum was adjusted to 5 × 10^5 CFU/mL in Mueller-Hinton (MH) medium. Incubations were kept at 37 °C for 24 h. Results are the average of three independent studies. […] To determine the MBC, 50 μL from all wells were seeded into Petri plates and incubated for 24 h. The MBC concentration was attributed to the lowest concentration without detectable bacterial growth for each peptide.

Pseudomonas sp. [6] = assay: MIC, broth microdilution; assay type: cell-based; conditions: Pseudomonas sp. ATCC 15915; Mueller-Hinton medium, 5 × 10^5 CFU/mL, 37 °C, 24 h; average of three independent studies
Protocol: as §1, §2

A. baumannii = assay type: cell-based, Acinetobacter baumannii; conditions: 24 h
Protocol: as §1, §2

[7] = 50 μL from MIC wells seeded into Petri plates, lowest concentration without detectable growth

Row | Molecule | cleaved bond (50% (v/v) Human Serum) | MIC S. enterica (S. enterica) | IC50 [2] | MBC Salmonella enterica (Salmonella enterica) | MBC Escherichia coli (Escherichia coli) | MBC Acinetobacter baumannii (Acinetobacter baumannii) | MBC Pseudomonas sp. (Pseudomonas sp. [3]) | MIC E. coli (E. coli [4]) | hemolysis % (250 μM peptide) (horse red blood cells; red cells of horse, 4 h, 250) | MIC in Pseudomonas sp., peptides incubated with human serum (Pseudomonas sp. [5]) | MIC S. flexneri (S. flexneri) | MBC Shigella flexneri (Shigella flexneri) | MIC Pseudomonas sp. (Pseudomonas sp. [6]) | MIC A. baumannii (A. baumannii) | other results
1 | O=C(O)c1cn(C2CC2)c2cc(N3CCNCC3)c(F)cc2c1=O [ciprofloxacin] |  |  |  |  |  |  |  |  |  |  |  |  |  |  | MIC (E. coli [1]; after four cycles of incubation with ciprofloxacin (1 μM; 1 μg/mL elsewhere in the source), 1 h per cycle, 10^7 cfu/mL, read-out: MIC against E. coli after four cycles of incubation): 5 µM (≈ 1.66 µg/mL); MIC (E. coli [1]; start of recurrent incubation, read-out: MIC against E. coli before resistance cycles): 1.5 µM (≈ 0.497 µg/mL)
2 | RPFTRAQWFAIQHISPRTIAMRAINNYRWR | Pro2-Phe3 |  |  |  |  |  |  |  |  |  |  |  |  |  | 
3 | CC[C@H](C)[C@H](NC(=O)[C@H](C)NC(=O)[C@H](CCN)NC(=O)[C@H](CCSC)NC(=O)[C@H](C)NC(=O)[C@@H](NC(=O)[C@@H](NC(=O)[C@H](CCN)NC(=O)[C@@H]1CCCN1C(=O)[C@H](CO)NC(=O)[C@@H](NC(=O)[C@H](Cc1c[nH]cn1)NC(=O)[C@H](CCC(N)=O)NC(=O)[C@@H](NC(=O)[C@H](C)NC(=O)[C@H](Cc1ccccc1)NC(=O)[C@H](Cc1c[nH]c2ccccc12)NC(=O)[C@H](CCC(N)=O)NC(=O)[C@H](C)NC(=O)[C@H](CCN)NC(=O)[C@@H](NC(=O)[C@H](Cc1ccccc1)NC(=O)[C@@H]1CCCN1C(=O)[C@@H](N)CCN)[C@@H](C)O)[C@@H](C)CC)[C@@H](C)CC)[C@@H](C)O)[C@@H](C)CC)C(=O)N[C@@H](CC(N)=O)C(=O)N[C@@H](CC(N)=O)C(=O)N[C@@H](Cc1ccc(O)cc1)C(=O)N[C@@H](CCN)C(=O)N[C@@H](Cc1c[nH]c2ccccc12)C(=O)N[C@@H](CCN)C(N)=O [compound 3] (H-[Dab]PFT[Dab]AQWFAIQHISP[Dab]TIAM[Dab]AINNY[Dab]W[Dab]-NH2) |  | 50 µM (≈ 171 µg/mL) | 182 ± 9 µM | 50 µM (≈ 171 µg/mL) | 6.25 µM (≈ 21.4 µg/mL) | 50 µM (≈ 171 µg/mL) | 3.13 µM (≈ 10.7 µg/mL) | 6.25 µM (≈ 21.4 µg/mL) | 14 ± 6% | 12.5 µM | 6.25 µM (≈ 21.4 µg/mL) | 6.25 µM (≈ 21.4 µg/mL) | 3.13 µM (≈ 10.7 µg/mL) | 50 µM (≈ 171 µg/mL) | hemolysis % (250 μM peptide) (horse red blood cells): 10%
4 | OPFTOAQWFAIQHISPOTIAMOAINNYOWO | Pro2-Phe3 |  |  |  |  |  |  |  |  |  |  |  |  |  | fragment found (50% (v/v) Human Serum): OPFTOAQWFAIQHISPO-------------; also recorded: -----------------TIAMOAINNYOWO; also recorded: OPFTOAQWFAIQHIS---------------; also recorded: ------QWFAIQHISPOTIAMOAINNY---
5 | CC[C@H](C)[C@H](NC(=O)[C@H](C)NC(=O)[C@H](CCCCNC(=N)N)NC(=O)[C@H](CCSC)NC(=O)[C@H](C)NC(=O)[C@@H](NC(=O)[C@@H](NC(=O)[C@H](CCCCNC(=N)N)NC(=O)[C@@H]1CCCN1C(=O)[C@H](CO)NC(=O)[C@@H](NC(=O)[C@H](Cc1c[nH]cn1)NC(=O)[C@H](CCC(N)=O)NC(=O)[C@@H](NC(=O)[C@H](C)NC(=O)[C@H](Cc1ccccc1)NC(=O)[C@H](Cc1c[nH]c2ccccc12)NC(=O)[C@H](CCC(N)=O)NC(=O)[C@H](C)NC(=O)[C@H](CCCCNC(=N)N)NC(=O)[C@@H](NC(=O)[C@H](Cc1ccccc1)NC(=O)[C@@H]1CCCN1C(=O)[C@@H](N)CCCCNC(=N)N)[C@@H](C)O)[C@@H](C)CC)[C@@H](C)CC)[C@@H](C)O)[C@@H](C)CC)C(=O)N[C@@H](CC(N)=O)C(=O)N[C@@H](CC(N)=O)C(=O)N[C@@H](Cc1ccc(O)cc1)C(=O)N[C@@H](CCCCNC(=N)N)C(=O)N[C@@H](Cc1c[nH]c2ccccc12)C(=O)N[C@@H](CCCCNC(=N)N)C(N)=O [compound 4] (H-[hArg]PFT[hArg]AQWFAIQHISP[hArg]TIAM[hArg]AINNY[hArg]W[hArg]-NH2) |  | 25 µM (≈ 96 µg/mL) | 7.6 ± 0.7 µM | 25 µM (≈ 96 µg/mL) | 6.25 µM (≈ 24 µg/mL) | 12.5 µM (≈ 48 µg/mL) | 3.13 µM (≈ 12 µg/mL) | 6.25 µM (≈ 24 µg/mL) | 43 ± 1% | 6.25 µM | 3.13 µM (≈ 12 µg/mL) | 3.13 µM (≈ 12 µg/mL) | 3.13 µM (≈ 12 µg/mL) | 12.5 µM (≈ 48 µg/mL) | 
6 | CC[C@H](C)[C@H](NC(=O)[C@H](CCCCN)NC(=O)[C@H](CCC(=O)O)NC(=O)[C@H](CCCCN)NC(=O)[C@H](CO)NC(=O)[C@H](CCCCN)NC(=O)[C@H](CCCNC(=N)N)NC(=O)[C@H](Cc1ccccc1)NC(=O)[C@H](Cc1ccccc1)NC(=O)[C@H](CC(=O)O)NC(=O)CNC(=O)[C@H](CC(C)C)NC(=O)[C@@H](N)CC(C)C)C(=O)NCC(=O)N[C@@H](CCCCN)C(=O)N[C@@H](CCC(=O)O)C(=O)N[C@@H](Cc1ccccc1)C(=O)N[C@@H](CCCCN)C(=O)N[C@@H](CCCNC(=N)N)C(=O)N[C@H](C(=O)N[C@H](C(=O)N[C@@H](CCC(N)=O)C(=O)N[C@@H](CCCNC(=N)N)C(=O)N[C@H](C(=O)N[C@@H](CCCCN)C(=O)N[C@@H](CC(=O)O)C(=O)N[C@@H](Cc1ccccc1)C(=O)N[C@@H](CC(C)C)C(=O)N[C@@H](CCCNC(=N)N)C(=O)N[C@@H](CC(N)=O)C(=O)N[C@@H](CC(C)C)C(=O)N[C@H](C(=O)N1CCC[C@H]1C(=O)N[C@@H](CCCNC(=N)N)C(=O)N[C@H](C(=O)N[C@@H](CCC(=O)O)C(=O)N[C@@H](CO)C(=O)O)[C@@H](C)O)C(C)C)[C@@H](C)CC)C(C)C)[C@@H](C)CC [LL-37, reference compound] |  |  |  |  |  |  | 1.56 µM (≈ 7.01 µg/mL) |  |  |  |  | 12.5 µM (≈ 56.2 µg/mL) | 1.56 µM (≈ 7.01 µg/mL) |  | MIC S. enterica (S. enterica; S. enterica ATCC 14028, Mueller-Hinton medium, 5 × 10^5 CFU/mL, 37 °C, average of three independent studies): 12.5 µM (≈ 56.2 µg/mL); MBC Salmonella enterica (Salmonella enterica; [7]): 12.5 µM (≈ 56.2 µg/mL); MBC Escherichia coli (Escherichia coli; [7]): 1.56 µM (≈ 7.01 µg/mL); MBC Acinetobacter baumannii (Acinetobacter baumannii; [7]): 6.25 µM (≈ 28.1 µg/mL); MIC S. flexneri (S. flexneri; S. flexneri ATCC 29903, Mueller-Hinton medium, 5 × 10^5 CFU/mL, 37 °C, average of three independent studies): 12.5 µM (≈ 56.2 µg/mL); increase in MIC (induced resistance) in E. coli (E. coli [1]; 7 rounds of incubation with 1 μM peptide, below the MIC): did not detect a significant increase in MIC; MIC A. baumannii (A. baumannii; A. baumannii ATCC 15308, Mueller-Hinton medium, 5 × 10^5 CFU/mL, 37 °C, average of three independent studies): 6.25 µM (≈ 28.1 µg/mL)
